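Each compound was tested at five concentrations against cells in 96-well plates for 48 hours. GI50: concentration for 50% inhibition of growth.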 Calls of active or inactive are those of the source. No stated cut-off is given here; in the data, active = GI50 up to about 1.1 µM and inactive = higher.
What was measured:
Test in all cases: NCI anticancer screen, dose series, 48 h
COLO 205 = test system: COLO 205
OVCAR-8 = test system: OVCAR-8
SF-295 = test system: SF-295
SNB-19 = test system: SNB-19
KM12 = test system: KM12
NCI-H23 = test system: NCI-H23
MCF7 = test system: MCF7
MDA-N = test system: MDA-N
A549 = test system: A549
U-251 = test system: U-251
OVCAR-5 = test system: OVCAR-5
UO-31 = test system: UO-31
786-0 = test system: 786-0
SF-539 = test system: SF-539
SK-OV-3 = test system: SK-OV-3
HCC 2998 = test system: HCC 2998
HOP-62 = test system: HOP-62
CCRF-CEM = test system: CCRF-CEM
HT-29 = test system: HT-29
UACC-257 = test system: UACC-257
EKVX = test system: EKVX
TK-10 = test system: TK-10
Hs-578T = test system: Hs-578T
LOX IMVI = test system: LOX IMVI
DU-145 = test system: DU-145
RXF 393 = test system: RXF 393
PC-3 = test system: PC-3
NCI-H522 = test system: NCI-H522
SF-268 = test system: SF-268
Malme-3M = test system: Malme-3M
SK-MEL-5 = test system: SK-MEL-5
HCT-15 = test system: HCT-15
NCI/ADR-RES = test system: NCI/ADR-RES
NCI-H226 = test system: NCI-H226
MOLT-4 = test system: MOLT-4
HL-60 = test system: HL-60
SN12C = test system: SN12C
SR = test system: SR
SK-MEL-28 = test system: SK-MEL-28
M14 = test system: M14
IGROV-1 = test system: IGROV-1
OVCAR-4 = test system: OVCAR-4
CAKI-1 = test system: CAKI-1
MDA-MB-435 = test system: MDA-MB-435
K562 = test system: K562
HOP-92 = test system: HOP-92
RPMI-8226 = test system: RPMI-8226
T47D = test system: T47D
A498 = test system: A498
SK-MEL-2 = test system: SK-MEL-2
ACHN = test system: ACHN
BT-549 = test system: BT-549
SNB-75 = test system: SNB-75
NCI-H460 = test system: NCI-H460
HCT-116 = test system: HCT-116
UACC-62 = test system: UACC-62
OVCAR-3 = test system: OVCAR-3
MDA-MB-231 = test system: MDA-MB-231
SW-620 = test system: SW-620
DMS-114 = test system: DMS-114
LXFL 529 = test system: LXFL 529
M19-MEL = test system: M19-MEL
DLD-1 = test system: DLD-1
KM-20L2 = test system: KM-20L2
SNB-78 = test system: SNB-78
DMS-273 = test system: DMS-273
XF498 = test system: XF498

Nc1n[c-](N)[n+](=O)c(N)c1NCO
GI50 (COLO 205): > 100 µM (inactive) | GI50 (OVCAR-8): > 100 µM (inactive) | GI50 (SF-295): > 100 µM (inactive) | GI50 (SNB-19): > 100 µM (inactive) | GI50 (KM12): > 100 µM (inactive) | GI50 (NCI-H23): > 100 µM (inactive) | GI50 (MCF7): > 100 µM (inactive) | GI50 (MDA-N): > 100 µM (inactive) | GI50 (A549): > 100 µM (inactive) | GI50 (U-251): > 100 µM (inactive) | GI50 (OVCAR-5): > 100 µM (inactive) | GI50 (UO-31): > 100 µM (inactive) | GI50 (786-0): > 100 µM (inactive) | GI50 (SF-539): > 100 µM (inactive) | GI50 (SK-OV-3): > 100 µM (inactive) | GI50 (HCC 2998): > 100 µM (inactive) | GI50 (HOP-62): > 100 µM (inactive) | GI50 (CCRF-CEM): > 100 µM (inactive) | GI50 (HT-29): > 100 µM (inactive) | GI50 (UACC-257): > 100 µM (inactive) | GI50 (EKVX): > 100 µM (inactive) | GI50 (TK-10): > 100 µM (inactive) | GI50 (Hs-578T): > 100 µM (inactive) | GI50 (LOX IMVI): > 100 µM (inactive) | GI50 (DU-145): > 100 µM (inactive) | GI50 (RXF 393): > 100 µM (inactive) | GI50 (PC-3): > 100 µM (inactive) | GI50 (NCI-H522): > 100 µM (inactive) | GI50 (SF-268): > 100 µM (inactive) | GI50 (Malme-3M): > 100 µM (inactive) | GI50 (SK-MEL-5): > 100 µM (inactive) | GI50 (HCT-15): > 100 µM | GI50 (NCI/ADR-RES): > 100 µM (inactive) | GI50 (NCI-H226): > 100 µM (inactive) | GI50 (MOLT-4): > 100 µM (inactive) | GI50 (HL-60): > 100 µM (inactive) | GI50 (SN12C): > 100 µM (inactive) | GI50 (SR): > 100 µM (inactive) | GI50 (SK-MEL-28): > 100 µM (inactive) | GI50 (M14): > 100 µM (inactive) | GI50 (IGROV-1): > 100 µM (inactive) | GI50 (OVCAR-4): > 100 µM (inactive) | GI50 (CAKI-1): > 100 µM (inactive) | GI50 (MDA-MB-435): > 100 µM (inactive) | GI50 (K562): > 100 µM (inactive) | GI50 (HOP-92): > 100 µM (inactive) | GI50 (RPMI-8226): > 100 µM (inactive) | GI50 (T47D): > 100 µM (inactive) | GI50 (A498): > 100 µM (inactive) | GI50 (SK-MEL-2): > 100 µM (inactive) | GI50 (ACHN): > 100 µM (inactive) | GI50 (BT-549): > 100 µM (inactive) | GI50 (SNB-75): > 100 µM (inactive) | GI50 (NCI-H460): > 100 µM (inactive) | GI50 (HCT-116): > 100 µM (inactive) | GI50 (UACC-62): > 100 µM (inactive) | GI50 (OVCAR-3): > 100 µM (inactive) | GI50 (MDA-MB-231): > 100 µM (inactive) | GI50 (SW-620): > 100 µM (inactive)

C/C(CC(=O)Nc1cc(C)ccc1C)=N/N=C(N)N
GI50 (COLO 205): > 100 µM (inactive) | GI50 (OVCAR-8): > 100 µM (inactive) | GI50 (DMS-114): > 100 µM (inactive) | GI50 (SF-295): > 100 µM (inactive) | GI50 (KM12): > 100 µM (inactive) | GI50 (NCI-H23): > 100 µM (inactive) | GI50 (A549): > 100 µM (inactive) | GI50 (U-251): > 100 µM (inactive) | GI50 (OVCAR-5): > 100 µM (inactive) | GI50 (UO-31): > 100 µM (inactive) | GI50 (786-0): > 100 µM (inactive) | GI50 (SF-539): > 100 µM (inactive) | GI50 (SK-OV-3): > 100 µM (inactive) | GI50 (HCC 2998): > 100 µM (inactive) | GI50 (HOP-62): > 100 µM (inactive) | GI50 (LXFL 529): > 100 µM (inactive) | GI50 (CCRF-CEM): > 100 µM (inactive) | GI50 (M19-MEL): > 100 µM (inactive) | GI50 (HT-29): > 100 µM (inactive) | GI50 (UACC-257): > 100 µM (inactive) | GI50 (EKVX): > 100 µM (inactive) | GI50 (TK-10): > 100 µM (inactive) | GI50 (LOX IMVI): > 100 µM (inactive) | GI50 (RXF 393): > 100 µM (inactive) | GI50 (DLD-1): > 100 µM (inactive) | GI50 (NCI-H522): > 100 µM (inactive) | GI50 (SF-268): > 100 µM (inactive) | GI50 (Malme-3M): > 100 µM (inactive) | GI50 (KM-20L2): > 100 µM (inactive) | GI50 (SNB-78): > 100 µM (inactive) | GI50 (SK-MEL-5): > 100 µM (inactive) | GI50 (DMS-273): > 100 µM (inactive) | GI50 (NCI-H226): > 100 µM (inactive) | GI50 (MOLT-4): > 100 µM (inactive) | GI50 (HL-60): > 100 µM (inactive) | GI50 (SK-MEL-28): > 100 µM (inactive) | GI50 (M14): > 100 µM (inactive) | GI50 (IGROV-1): > 100 µM (inactive) | GI50 (K562): > 100 µM (inactive) | GI50 (HOP-92): > 100 µM (inactive) | GI50 (RPMI-8226): > 100 µM (inactive) | GI50 (A498): > 100 µM (inactive) | GI50 (SK-MEL-2): > 100 µM (inactive) | GI50 (ACHN): > 100 µM (inactive) | GI50 (SNB-75): > 100 µM (inactive) | GI50 (NCI-H460): > 100 µM (inactive) | GI50 (XF498): > 100 µM (inactive) | GI50 (HCT-116): > 100 µM (inactive) | GI50 (UACC-62): > 100 µM (inactive) | GI50 (OVCAR-3): > 100 µM (inactive) | GI50 (SW-620): > 100 µM (inactive)

From ChEMBL document CHEMBL1201862, “PubChem BioAssay data set” (2004)
